Each structure is given as a SMILES string.

Holding throughout (format): cell-based
The test system of assay [1] is bovine TM cells. Nature of the assay: TM cell volume by electronic cell sizing (Coulter Counter). The method, then:
By the second method, TM cells were trypsinized briefly in Ca-free medium, then rinsed with medium containing trypsin inhibitor and suspended in Hepes MEM. Mean cell volumes were then analyzed by electronic cell sizing on a Coulter Counter™ […] (Model ZM), with channelizer (C256), using at least 50,000 cells per data point and an orifice diameter of 140 μm. Aliquots of suspended cells were diluted into Hepes MEM containing the tonicity and/or agents to be evaluated. Mean cell volumes of each suspension aliquot were followed over time, starting at 1 minute after addition of cells to the assay media. Cell suspensions were maintained at 37° C. throughout the assay period. Absolute volumes (picoliters/cell) were calculated from distribution curves of cell diameter, using a standard curve generated by polystyrene latex beads of known diameter.
In order to determine whether the Na—K—Cl cotransporter of TM cells may play a role in restoration of intracellular volume following hypertonicity-induced cell shrinkage, we evaluated the effect of hypertonicity on TM cell volume and Na^+—K^+—2Cl^− cotransport activity. […] The intracellular volume of the cells then increased over a slower time course, with volume recovering to approximately 84% by 33 minutes as shown in FIG. 3A.

In assay [2] the target is T1, Na—K—Cl cotransport (Bos taurus, UniProt F1MS08).
T1 sequence (F1MS08 1-1204): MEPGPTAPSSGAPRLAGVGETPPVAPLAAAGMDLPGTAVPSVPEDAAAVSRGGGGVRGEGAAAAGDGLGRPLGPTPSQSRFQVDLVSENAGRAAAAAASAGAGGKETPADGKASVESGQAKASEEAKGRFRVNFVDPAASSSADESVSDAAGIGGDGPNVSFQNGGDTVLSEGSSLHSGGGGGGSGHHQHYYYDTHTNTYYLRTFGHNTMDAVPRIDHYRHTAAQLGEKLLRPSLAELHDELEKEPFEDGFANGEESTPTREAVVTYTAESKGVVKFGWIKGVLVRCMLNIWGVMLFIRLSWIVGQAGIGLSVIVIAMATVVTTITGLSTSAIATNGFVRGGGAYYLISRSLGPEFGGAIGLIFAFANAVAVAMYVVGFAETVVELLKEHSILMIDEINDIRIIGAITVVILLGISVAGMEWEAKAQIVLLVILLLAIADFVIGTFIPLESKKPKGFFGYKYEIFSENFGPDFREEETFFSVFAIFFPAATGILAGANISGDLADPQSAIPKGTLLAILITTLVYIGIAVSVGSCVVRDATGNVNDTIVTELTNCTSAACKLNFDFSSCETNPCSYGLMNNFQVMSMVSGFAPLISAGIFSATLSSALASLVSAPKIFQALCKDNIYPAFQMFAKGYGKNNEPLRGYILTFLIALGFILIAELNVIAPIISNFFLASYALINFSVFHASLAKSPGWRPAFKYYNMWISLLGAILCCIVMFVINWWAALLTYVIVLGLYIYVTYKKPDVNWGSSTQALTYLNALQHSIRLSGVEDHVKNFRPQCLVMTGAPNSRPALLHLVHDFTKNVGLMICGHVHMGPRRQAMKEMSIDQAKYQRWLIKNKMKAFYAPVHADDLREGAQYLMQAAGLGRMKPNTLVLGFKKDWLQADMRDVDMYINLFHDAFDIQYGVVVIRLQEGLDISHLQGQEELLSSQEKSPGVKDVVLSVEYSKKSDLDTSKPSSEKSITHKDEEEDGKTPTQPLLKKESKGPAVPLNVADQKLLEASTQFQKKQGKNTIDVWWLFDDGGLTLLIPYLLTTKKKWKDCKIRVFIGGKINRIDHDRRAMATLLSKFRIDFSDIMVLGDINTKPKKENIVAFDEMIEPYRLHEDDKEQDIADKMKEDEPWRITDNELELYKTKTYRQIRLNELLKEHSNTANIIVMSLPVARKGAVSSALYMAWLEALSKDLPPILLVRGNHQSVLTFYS
Put plainly: K influx (86Rb) in bovine TM cell monolayers. As for the experimental part:
Details of this method have been published previously (O'Donnell, M. E., supra, 1989). Briefly, bovine or human TM cell monolayers on 24 well plates were equilibrated for 10 minutes at 37° C. in a Hepes-buffered minimal essential medium (MEM) containing (in mM): 144 Na, 147 Cl, 5.8 K, 1.2 Ca, 4.2 HCO3, 0.4 H2PO4, […], 0.4 SO4, 5.6 glucose and 20 Hepes. […] The assay medium also contained ^86Rb (1 μCi/ml) (Dupont New England Nuclear, Boston, Mass.). The assay was terminated by rinsing the wells with ice-cold isotonic MgCl2, then extracting the contents with 0.2% sodium dodecyl sulfate (SDS), and determining the amount of radioactive contents by liquid scintillation. Osmolarities of all preincubation and assay media were verified by osmometry (Model 3W2, Advanced Instruments, Norwood, Mass.).
The effects of hormones, neurotransmitters and second messengers on Bumetanide-sensitive K influx of bovine trabecular meshwork cells were assessed using the procedures of Example 1. […] The control is the Hepes-buffered medium containing Na, K, Cl, CA and other ions as described in Example 1B. […] The data represent the mean values±SEM of quadruplicate determinations from two experiments.

Assay [3] concerns TM cell monolayers. Put plainly: Flux of 14C-sucrose across confluent TM cell monolayers on filters. Conditions: 15 minute assay period. The method, then: To investigate the possibility that alteration of TM intracellular volume results in modulation of trabecular meshwork barrier permeability, we evaluated the flux of ^14C-sucrose across confluent TM cell monolayers grown on permeable filters. Cells were grown to confluence on collagen-coated dual level tissue culture filter inserts placed in covered multiwell cluster plates, as shown schematically in […], wherein lower chamber 2 is formed by suspension of membrane 4 with cells attached into holder 6, which is covered by cover 8. Upper chamber 10 is formed by the space within the holder above the membrane. Growth media (EMEM) volumes of 0.5 and 1.5 ml were used for upper and lower chambers, respectively, as previously described (Kajimura, et al., FASEB J, 8:A1045, 1994) for evaluation of endothelial cell monolayers and for evaluation of water permeability of TM cell monolayers (Perkins, et al., Invest. Ophthalmol. Vis. Sci., 29:1836-1846, 1988). One insert was placed in each of 12 wells in a cluster plate. Permeability was assessed as the flux of ^14C-sucrose across the TM cell monolayers. […] Sucrose content of the samples was determined by […] methods. The amount of solute was calculated from the radioactivity present in the sample and the specific activity (cpm/μmol) of the ^14C-sucrose.

Take `CCCCNc1cc(C(=O)O)cc(S(N)(=O)=O)c1Oc1ccccc1` [bumetanide]: the intracellular volume result in assay [1] (30 minute exposure, bumetanide 10 μM, ethacrynic acid 1 mM, versus Hepes MEM control) was “significant reduction”. In addition, the “volume recovery after hypertonicity-induced cell shrinkage” value in assay [1] (hypertonic (400 mOsm) medium containing bumetanide) was “greatly attenuated”. The compound also came in with a K influx in assay [2] (10 μM bumetanide, total K uptake without drug 49±1.47) of 22.09±1.14 μmol K/gm protein/min. The “BUMETANIDE-SENSITIVE K INFLUX” value was found to be 20.1 μmol K/gm protein/min in assay [2] (with Na/K pump inhibition (ouabain)) and 26.9 μmol K/gm protein/min in assay [2] (without Na/K pump inhibition). Besides, the “monolayer permeability to sucrose” value in assay [3] is “increased”.

(Values after patent publication US20020016346A1, “Method for enhancing outflow of aqueous humor in treatment of glaucoma” (The Regents University of California, a California …, priority 1994, published 2002).)
